For one data set, the system named is catalepsy in rats. The note with it: cited from earlier work.
The subject of data set [1] is hyperactivity in rats induced by PCP. The note with it: cited from earlier work.
In data set [2] the test system is amphetamine-induced hyperactivity. The note with it: rat, in vivo; cited from earlier work.
For data set [3] the following is noted: after systemic administration; cited from earlier work.
Another data set deals with T1, PDE10A (human) (Homo sapiens, UniProt Q9Y233).
T1 construct: purchased BPS Bioscience
T1 sequence (Q9Y233 whole entry): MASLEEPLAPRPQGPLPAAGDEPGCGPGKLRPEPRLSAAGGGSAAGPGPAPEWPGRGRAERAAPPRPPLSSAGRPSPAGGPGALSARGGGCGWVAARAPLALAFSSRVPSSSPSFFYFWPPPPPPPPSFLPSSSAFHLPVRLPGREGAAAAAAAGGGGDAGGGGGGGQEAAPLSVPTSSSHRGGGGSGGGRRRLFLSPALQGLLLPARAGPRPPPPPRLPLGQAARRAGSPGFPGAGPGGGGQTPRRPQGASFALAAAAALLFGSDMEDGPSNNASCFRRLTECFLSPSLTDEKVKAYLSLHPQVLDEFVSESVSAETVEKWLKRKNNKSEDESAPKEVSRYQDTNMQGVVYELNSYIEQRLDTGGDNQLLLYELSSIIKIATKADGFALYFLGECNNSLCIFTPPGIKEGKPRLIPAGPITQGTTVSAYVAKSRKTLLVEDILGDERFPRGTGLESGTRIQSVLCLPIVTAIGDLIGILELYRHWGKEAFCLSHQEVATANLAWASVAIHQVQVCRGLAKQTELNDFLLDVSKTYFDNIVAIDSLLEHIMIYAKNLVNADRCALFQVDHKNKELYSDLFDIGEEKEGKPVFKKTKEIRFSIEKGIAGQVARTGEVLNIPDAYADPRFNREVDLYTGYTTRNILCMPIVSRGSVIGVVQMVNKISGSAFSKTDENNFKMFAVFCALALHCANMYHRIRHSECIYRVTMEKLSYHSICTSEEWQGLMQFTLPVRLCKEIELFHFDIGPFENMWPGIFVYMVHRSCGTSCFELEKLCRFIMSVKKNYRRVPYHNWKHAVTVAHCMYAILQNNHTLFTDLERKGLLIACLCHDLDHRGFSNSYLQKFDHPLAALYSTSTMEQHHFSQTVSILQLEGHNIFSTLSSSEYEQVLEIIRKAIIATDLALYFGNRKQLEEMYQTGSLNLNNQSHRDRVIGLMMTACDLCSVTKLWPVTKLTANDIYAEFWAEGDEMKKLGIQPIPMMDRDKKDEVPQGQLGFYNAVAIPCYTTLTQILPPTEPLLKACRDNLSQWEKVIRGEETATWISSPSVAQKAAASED
Put plainly: Measurement of PDE activity (HTRF cAMP kit), human PDE10A. The data set is classed as biochemical. The note with it: PDE enzymatic reaction, substrate 20 nM for PDE10, 60 minutes at 29 C. In short, it runs like this: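 HTRF detection of cAMP left after hydrolysis, expressed as percent of uninhibited control to derive IC50. Reaction: serially diluted inhibitor mixed with recombinant enzyme, started with 20 nM cAMP, 60 min at 29 °C in Tris-HCl pH 7.5 buffer containing MgCl2 and BSA.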
A general note: In TR-FRET formats the signal depends on donor and acceptor labels being close together.

Data set [4] is described as follows: in vitro. The note with it: rat, microsomes, pH 7.4.
Method: (§1) The test substances were incubated in a concentration of 0.5 μM as follows:
(§2) 0.5 μM test substance are preincubated together with liver microsomes from different species (from rat, human or other species) (0.25 mg of microsomal protein/10 in 0.05 M potassium phosphate buffer of pH 7.4 in microtiter plates at 37° C. for 5 min. The reaction is started by adding NADPH (1 mg/mL). After 0, 5, 10, 15, 20 and 30 min., 50 μl aliquots are removed, and the reaction is immediately stopped and cooled with the same volume of acetonitrile. The samples are frozen until analyzed. The remaining concentration of undegraded test substance is determined by MSMS. The half-life (T½) is determined from the gradient of the signal of test substance/unit time plot, it being possible to calculate the half-life of the test substance, assuming first order kinetics, from the decrease in the concentration of the compound with time. The microsomal clearance (mCl) is calculated from mCl=ln 2/T½/(content of microsomal protein in mg/ml)×1000 [ml/min/mg]
Data set [5] in a line: in vitro. As to conditions: human, microsomes, pH 7.4.
Data set [6] in a line: Determination of the microsomal half-life, rat liver microsomes. The note with it: rat, liver microsomes, pH 7.4. On the technique in general: Liver microsomes are a subcellular fraction often used to study metabolism.
Method: as §1, §2
The nature of data set [7]: Determination of the microsomal half-life, human liver microsomes. The note with it: for microsomal CLint at 0.5 μM: human, liver microsomes, pH 7.4.

Structures can show the parent of a compound that is named as a salt. A value given as a limit tells only on which side of the number the result lay.

With `COc1ccc(Cc2nccc3cc(OC)c(OC)cc23)cc1OC` [Papaverine, papaverine], in the data set on catalepsy in rats (papaverine alone), the “catalepsy on its own” value is “did not cause catalepsy on its own”. Besides, in the data set with catalepsy in rats (together with haloperidol), the “cataleptic effect of the D2 receptor antagonist haloperidol” value was “potentiated the cataleptic effect”. Also, in [1], the “hyperactivity induced by PCP” value was “reduced hyperactivity”. Also, the “reduction of amphetamine-induced hyperactivity” value in data set [2] was “insignificant”. The exposure half-life result in data set [3] is on record as “very short”.

`O=C1c2c(cccc2N2C3CCC2CNC3)CN1CCc1ccc2ccccc2n1` [Example 103, 7-(3,8-Diaza-bicyclo[3.2.1]oct-8-yl)-2-(2-quinolin-2-yl-ethyl)-2,3-dihydro-isoindol-1-one] displayed an IC50 at PDE10A (human) of 200 to 500 nM. Further, the microsomal CLint at 0.5 μM in “in vitro [4]” and in the data set “in vitro [5]” was below 100 µL/min/mg each time.

For the compound `O=C(O)C(F)(F)F.O=C1c2c(-c3ccnc(F)c3)ccnc2CN1CCc1nc2ccccc2s1` [compound 421, 6-[2-(1,3-Benzothiazol-2-yl)ethyl]-4-(2-fluoro-4-pyridyl)-7H-pyrrolo[3,4-b]pyridin-5-one trifluoroacetate], on PDE10A (human), the IC50 was below 100 nM. In data set [6], this compound came in with a microsomal CLint at 0.5 μM below 100 µL/min/mg. Also, the “Human mCl (mikrosomal clearance)” value in data set [7] (human liver microsomes, 0.5 μM test substance, 0.25 mg microsomal protein, pH 7.4, 37° C., NADPH) is recorded as “◯”.

Regarding `O=C(O)C1CN(c2ccnc3c2C(=O)N(CCc2ccc4ccccc4n2)C3)C1` [compound 446, 1-[5-oxo-6-[2-(2-quinolyl)ethyl]-7H-pyrrolo[3,4-b]pyridin-4-yl]azetidine-3-carboxylic acid], on PDE10A (human), the IC50 lay in the range of 100 to 200 nM. Moreover, the microsomal CLint at 0.5 μM in data set [6] and in [7] was below 100 µL/min/mg each time.

In turn, `CCOc1ncc(-c2cccc3c2CN(CCc2ccc4ccccc4n2)C3=O)cn1` [Example 343, 4-(2-Ethoxy-pyrimidin-5-yl)-2-(2-quinolin-2-yl-ethyl)-2,3-dihydro-isoindol-1-one] had an IC50 against PDE10A (human) of 200 to 500 nM. Further, the intrinsic metabolic clearance (microsomal CLint) at 0.5 μM in [6] is above 220 µL/min/mg; in [7], 100 to 220 µL/min/mg.

Consider `O=C1Cc2ccc(-c3ccnc4c3C(=O)N(CCc3ccc5ccccc5n3)C4)cc2N1` [Example 165, 4-(2-oxo-2,3-dihydro-1H-indol-6-yl)-6-(2-quinolin-2-yl-ethyl)-6,7-dihydro-pyrrolo[3,4-b]pyridin-5-one], for which the IC50 against PDE10A (human) was below 100 nM. Also, the microsomal CLint at 0.5 μM in [6] and in data set [7] was below 100 µL/min/mg throughout.

On PDE10A (human), `Cn1c(CCN2Cc3nccc(-c4cccnc4)c3C2=O)nc2ccccc21` [Example 368, 6-[2-(1-Methyl-1H-benzoimidazol-2-yl)-ethyl]-4-pyridin-3-yl-6,7-dihydro-pyrrolo[3,4-b]pyridin-5-one] came in with an IC50 below 100 nM. For the same compound, the microsomal CLint at 0.5 μM in data set [6] and in [7] was below 100 µL/min/mg in each case.

For the compound `O=C1c2cccc(-c3ccnnc3)c2CN1CCc1ccc2ccccc2n1` [Example 353, 4-Pyridazin-4-yl-2-(2-quinolin-2-yl-ethyl)-2,3-dihydro-isoindol-1-one], the IC50 against PDE10A (human) lay within 100 to 200 nM. The figures for the microsomal CLint at 0.5 μM in data set [6] and in [7] were 100 to 220 µL/min/mg and below 100 µL/min/mg, respectively.

`Cn1nccc1-c1ccnc2c1C(=O)N(CCc1nc3ccccc3n1C)C2` [Example 214, 6-[2-(1-Methyl-1H-benzoimidazol-2-yl)-ethyl]-4-(2-methyl-2H-pyrazol-3-yl)-6,7-dihydro-pyrrolo[3,4-b]pyridin-5-one]: the IC50 against PDE10A (human) fell in the range of 100 to 200 nM. Further, the microsomal CLint at 0.5 μM in [6] and in data set [7] was below 100 µL/min/mg in each case.

At PDE10A (human), `Cc1ccc(CCN2Cc3nccc(N4CCS(=O)(=O)CC4)c3C2=O)nc1` [compound 479, 4-(1,1-Dioxo-1,4-thiazinan-4-yl)-6-[2-(5-methyl-2-pyridyl)ethyl]-7H-pyrrolo[3,4-b]pyridin-5-one trifluoroacetate] had a half-inhibitory concentration (IC50) of 200 to 500 nM. Also, the microsomal CLint at 0.5 μM in [6] and in data set [7] was below 100 µL/min/mg in each case.

Take `COc1ccc(-c2cncnc2)c2c1CN(CCc1cn3ccccc3n1)C2=O` [Example 217, 2-(2-Imidazo[1,2-a]pyridin-2-yl-ethyl)-4-methoxy-7-pyrimidin-5-yl-2,3-dihydro-isoindol-1-one trifluoroacetate]: the IC50 against PDE10A (human) is below 100 nM. For the same compound, the microsomal CLint at 0.5 μM in [6] and in data set [7] was below 100 µL/min/mg each time.

`Cc1ccc(-c2cccc3c2C(=O)N(CCc2ccc4ccccc4n2)C3)cn1` [Example 91, 7-(6-Methyl-pyridin-3-yl)-2-(2-quinolin-2-yl-ethyl)-2,3-dihydro-isoindol-1-one] registered an IC50 on PDE10A (human) below 100 nM. The figures for the microsomal CLint at 0.5 μM in data set [6] and in [7] were below 100 µL/min/mg and 100 to 220 µL/min/mg, respectively.

`Cc1ncccc1COc1cccc2c1C(=O)N(CCc1ccc3ccccc3n1)C2` [Example 179, 7-(2-Methyl-pyridin-3-ylmethoxy)-2-(2-quinolin-2-yl-ethyl)-2,3-dihydro-isoindol-1-one]: the IC50 on PDE10A (human) was below 100 nM. For the same compound, the figures for the microsomal CLint at 0.5 μM in data set [6] and in [7] were 100 to 220 µL/min/mg and above 220 µL/min/mg, respectively.

For `O=C1c2c(C3CCOCC3)ccnc2CN1CCc1ccc2ccccc2n1` [Example 297, 6-(2-Quinolin-2-yl-ethyl)-4-(tetrahydro-pyran-4-yl)-6,7-dihydro-pyrrolo[3,4-b]pyridin-5-one], the IC50 at PDE10A (human) is below 100 nM. For the same compound, the microsomal CLint at 0.5 μM in data set [6] and in data set [7] was 100 to 220 µL/min/mg in each case.

On PDE10A (human), `O=C1c2c(cccc2-c2cn[nH]c2)CN1CCc1cn2ccccc2n1` [Example 242, 2-(2-Imidazo[1,2-a]pyridin-2-yl-ethyl)-7-(1H-pyrazol-4-yl)-2,3-dihydro-isoindol-1-one] came in with an IC50 of 100 to 200 nM. For the same compound, the figures for the microsomal CLint at 0.5 μM in data set [6] and in [7] were 100 to 220 µL/min/mg and below 100 µL/min/mg, respectively.

`CC(C)c1ccc(CCN2Cc3nccc(N4CCOCC4)c3C2=O)nc1` [compound 401, 6-[2-(5-Isopropyl-2-pyridyl)ethyl]-4-morpholino-7H-pyrrolo[3,4-b]pyridin-5-one] had an IC50 at PDE10A (human) below 100 nM. Besides, the microsomal CLint at 0.5 μM in [6] is 100 to 220 µL/min/mg; in data set [7], below 100 µL/min/mg.

On PDE10A (human), `Cc1noc(C)c1-c1ccnc2c1C(=O)N(CCc1ccc3ccccc3n1)C2` [Example 335, 4-(3,5-Dimethyl-isoxazol-4-yl)-6-(2-quinolin-2-yl-ethyl)-6,7-dihydro-pyrrolo[3,4-b]pyridin-5-one] came in with an IC50 of 200 to 500 nM. Further, the microsomal CLint at 0.5 μM in data set [6] was above 220 µL/min/mg; in data set [7] it was 100 to 220 µL/min/mg.

As usually defined, the IC50 is the concentration that inhibits the measured activity by half. A lower IC50 goes with inhibition by little substance. Broadly, the microsomal CLint is the rate of metabolic loss divided by the concentration.

The values above are taken from patent US9938269B2, “Inhibitor compounds of phosphodiesterase type 10A” (ABBVIE INC., priority 2011, dated 2018).
